Results as given in ChEMBL document CHEMBL3228008, “Synthesis and some pharmacological properties of 8-L-methionine-oxytocin” (1979).
Where a SMILES comes first, the peptide text is derived from it. Bridges are numbered along the chain shown (N, C = ends).

Assays:
[1] = Oxytocic activity in virgin rat uterine horns; format: functional
[2] = test system: Gallus gallus; assay: Avian vasodepressor activity in conscious chicken; format: functional
[3] = test system: Rattus norvegicus; assay: Antidiuretic activity in anesthetized rat; format: functional, Urine
[4] = test system: Rattus norvegicus; assay: Pressor activity in anesthetized rat; format: functional

## CC[C@H](C)[C@@H]1NC(=O)[C@H](Cc2ccc(O)cc2)NC(=O)[C@@H](N)CSSC[C@@H](C(=O)N2CCC[C@H]2C(=O)N[C@@H](CCSC)C(=O)NCC(N)=O)NC(=O)[C@H](CC(N)=O)NC(=O)[C@H](CCC(N)=O)NC1=O (H-CYIQNCPMG-NH2; disulfide 1-6)
[1]
  Activity: 200 U/mg
[2]
  Activity: 193 U/mg
[3]
  Activity: 0.4 U/mg
[4]
  Activity: 27 U/mg
